# Where “and” joins values, the source holds several entries; their conditions need not be identical. Equal entries are not always repeated.
# Tests used:
# PKC-ALPHA = PKC-ALPHA (Homo sapiens, UniProt P17252); assay: Nanosyn kinase profiling, mobility shift assay; conditions: read-out: % inhibition by neratinib
# [1] = tested on: obese diabetic Lepr db/db mice; assay: db/db model: nuclear PDX1-positive β-cells; type: in vivo, mouse; conditions: for PDX1 %/mouse: dbdb mice
# Source text: (§1) Data are representative of six mice per group (n = 6 for (a–f)). g–j Mice were killed at day 31. g β-cell mass (given as percentage of the whole pancreatic section from ten sections spanning the width of the pancreas; n = 5 mice/group) and quantitative analyses from triple stainings for (h) TUNEL, (i) Ki67, (j) pHH3, and (k) nuclear PDX1 expression, insulin, and DAPI expressed as percentage of TUNEL-, Ki67-, pHH3-, or nuclear PDX1-positive β-cells ± SEM. An average number of 13667 (h), 5937 (i), 7108 (j), or 4330 (k) β-cells were counted from n = 3–5 (h, i, k) or n = 5–6 (j) mice/group.
# Mouse pancreases were dissected and fixed in 4% formaldehyde at 4 °C for 12 h before embedding in paraffin[62]. Two-four-micrometer sections were deparaffinized, rehydrated, and incubated overnight at 4 °C with anti-PDX-1 (Abcam; #47267), anti-Glut2 (Chemicon; #07-1402), anti-Ki67 (Dako; #M7249), anti-phospho-Histone H3 (Ser10; Merck #06-570), and anti-NKX6.1 (DSHB, University of Iowa #F55A12[66]) in combination with TSA (Invitrogen #T30955), or for 2 h at room temperature with anti-insulin (Dako; A0546) antibodies (all at a dilution of 1:100, except anti-PDX-1, which was diluted 1:400) followed by fluorescein isothiocyanate (FITC)- or Cy3-conjugated secondary antibodies (Jackson ImmunoResearch Laboratories, West Grove, PA). Slides were mounted with Vectashield with 4′6-diamidino-2-phenylindole (DAPI) (Vector Labs). β-cell apoptosis was analyzed by the terminal deoxynucleotidyl transferase-mediated dUTP nick-end labeling (TUNEL) technique according to the manufacturer’s instructions (In Situ Cell Death Detection Kit, TMR red; Roche) and double stained for insulin. Fluorescence was analyzed by using a Nikon MEA53200 (Nikon GmbH, Dusseldorf, Germany) microscope, and images were acquired by using NIS-Elements software (Nikon).
# INS-1E cells [2] = assay: Caspase-3 activation Nucview assay, thapsigargin; type: cell-based, rat; conditions: 0.1 µM thapsigargin, NucView 488
# Description: Apoptosis was induced after 24 h of compound treatment by 0.1 µM Thapsigargin (Torics, Bristol, United Kingdom) with caspase-3 substrate, Nucview 488 (Biotium, CA) in the treatment.
# 1 50 Supplementary Figure 3
# 100 Cell number Cell Number
# evaluated through Nucview488 and Hoechst33342.
# were analyzed through qRT-PCR.
# detected on plate reader.
# [3] = tested on: obese diabetic Lepr db/db mice; assay: db/db model: ipITT; type: in vivo, mouse; design: ipITT: unit not given here; conditions: for ipITT normalized to 100: MEAN
# Source text: as §1
# For intraperitoneal glucose tolerance tests, mice were fasted 12 h overnight and injected i.p. with glucose (40%; B.Braun, Melsungen, Germany) at a dose of 1 g/kg body weight. Blood samples were obtained at time points 0, 15, 30, 60, 90, and 120 min for glucose measurements by using a Glucometer. For i.p. insulin tolerance tests, mice were injected with 0.75 U/kg body weight recombinant human insulin (Novolin, Novo Nordisk) after 4–5-h fasting, and glucose concentration was determined with the Glucometer. Insulin secretion was measured before (0 min) and after (15 and 30 min) i.p. injection of glucose (2 g/kg) and measured by using ultrasensitive mouse Elisa kit (ALPCO Diagnostics, Salem, NH).
# P38-ALPHA = P38-ALPHA (Homo sapiens, UniProt Q16539); assay: Nanosyn kinase profiling, mobility shift assay; conditions: read-out: % inhibition by neratinib
# P38-ALPHA, sequence (Q16539 whole entry): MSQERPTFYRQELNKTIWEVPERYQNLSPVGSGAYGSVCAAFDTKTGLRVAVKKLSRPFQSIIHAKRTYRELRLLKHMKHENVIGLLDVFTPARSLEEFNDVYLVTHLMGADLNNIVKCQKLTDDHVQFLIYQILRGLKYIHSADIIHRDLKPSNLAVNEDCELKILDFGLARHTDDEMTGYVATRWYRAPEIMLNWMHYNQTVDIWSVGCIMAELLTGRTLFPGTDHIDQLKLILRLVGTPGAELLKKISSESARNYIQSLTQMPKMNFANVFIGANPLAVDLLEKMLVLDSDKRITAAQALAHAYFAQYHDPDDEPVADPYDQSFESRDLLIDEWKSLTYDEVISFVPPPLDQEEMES
# CHEK1 = CHEK1 (Homo sapiens, UniProt O14757); assay: Nanosyn kinase profiling, mobility shift assay; conditions: read-out: % inhibition by neratinib
# CHEK1, sequence (O14757 whole entry): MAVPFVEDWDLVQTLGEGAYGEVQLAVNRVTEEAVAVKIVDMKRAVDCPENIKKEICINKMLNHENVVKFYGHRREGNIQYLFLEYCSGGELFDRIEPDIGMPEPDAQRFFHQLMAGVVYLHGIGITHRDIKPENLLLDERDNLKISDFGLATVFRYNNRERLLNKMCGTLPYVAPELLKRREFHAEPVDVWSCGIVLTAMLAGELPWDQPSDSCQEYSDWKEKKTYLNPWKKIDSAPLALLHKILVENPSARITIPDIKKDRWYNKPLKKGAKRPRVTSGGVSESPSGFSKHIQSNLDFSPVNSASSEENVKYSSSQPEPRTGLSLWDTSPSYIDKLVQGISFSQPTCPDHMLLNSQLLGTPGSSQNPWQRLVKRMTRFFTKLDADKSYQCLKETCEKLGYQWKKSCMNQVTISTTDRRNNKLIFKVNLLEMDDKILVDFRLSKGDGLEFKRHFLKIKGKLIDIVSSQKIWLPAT
# CAMK4 = CAMK4 (Homo sapiens, UniProt Q16566); assay: Nanosyn kinase profiling, mobility shift assay; conditions: read-out: % inhibition by neratinib
# CAMK4, sequence (Q16566 whole entry): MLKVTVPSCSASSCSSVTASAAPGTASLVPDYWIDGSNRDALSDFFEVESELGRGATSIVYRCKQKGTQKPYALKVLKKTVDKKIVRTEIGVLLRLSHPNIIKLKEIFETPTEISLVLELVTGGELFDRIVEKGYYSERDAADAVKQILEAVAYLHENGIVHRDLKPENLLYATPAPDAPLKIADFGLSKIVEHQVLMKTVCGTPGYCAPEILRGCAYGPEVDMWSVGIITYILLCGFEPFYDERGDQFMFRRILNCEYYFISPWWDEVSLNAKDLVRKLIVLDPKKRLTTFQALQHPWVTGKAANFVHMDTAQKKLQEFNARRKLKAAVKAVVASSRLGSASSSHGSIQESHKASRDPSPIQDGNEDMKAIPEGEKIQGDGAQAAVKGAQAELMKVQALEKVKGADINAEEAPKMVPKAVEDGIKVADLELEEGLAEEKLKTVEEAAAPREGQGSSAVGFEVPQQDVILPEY
# PRKD2 = PRKD2 (Homo sapiens, UniProt Q9BZL6); assay: Nanosyn kinase profiling, mobility shift assay; conditions: read-out: % inhibition by neratinib
# GSK-3-BETA = GSK-3-BETA (Homo sapiens, UniProt P49841); assay: Nanosyn kinase profiling, mobility shift assay; conditions: read-out: % inhibition by neratinib
# GSK-3-BETA, sequence (P49841 whole entry): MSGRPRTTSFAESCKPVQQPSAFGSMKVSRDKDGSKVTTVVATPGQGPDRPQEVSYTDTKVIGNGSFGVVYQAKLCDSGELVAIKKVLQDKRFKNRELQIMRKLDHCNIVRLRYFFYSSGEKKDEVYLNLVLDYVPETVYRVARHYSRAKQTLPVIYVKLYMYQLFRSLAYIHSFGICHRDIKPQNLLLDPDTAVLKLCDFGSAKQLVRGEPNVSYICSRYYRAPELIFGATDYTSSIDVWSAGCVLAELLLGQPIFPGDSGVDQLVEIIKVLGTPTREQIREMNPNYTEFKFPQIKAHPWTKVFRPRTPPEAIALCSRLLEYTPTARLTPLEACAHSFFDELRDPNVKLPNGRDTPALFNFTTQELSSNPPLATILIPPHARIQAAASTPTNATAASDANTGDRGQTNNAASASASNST
# FGFR1 = FGFR1 (Homo sapiens, UniProt P11362); assay: Nanosyn kinase profiling, mobility shift assay; conditions: read-out: % inhibition by neratinib
# FGFR1, sequence (P11362 22-822): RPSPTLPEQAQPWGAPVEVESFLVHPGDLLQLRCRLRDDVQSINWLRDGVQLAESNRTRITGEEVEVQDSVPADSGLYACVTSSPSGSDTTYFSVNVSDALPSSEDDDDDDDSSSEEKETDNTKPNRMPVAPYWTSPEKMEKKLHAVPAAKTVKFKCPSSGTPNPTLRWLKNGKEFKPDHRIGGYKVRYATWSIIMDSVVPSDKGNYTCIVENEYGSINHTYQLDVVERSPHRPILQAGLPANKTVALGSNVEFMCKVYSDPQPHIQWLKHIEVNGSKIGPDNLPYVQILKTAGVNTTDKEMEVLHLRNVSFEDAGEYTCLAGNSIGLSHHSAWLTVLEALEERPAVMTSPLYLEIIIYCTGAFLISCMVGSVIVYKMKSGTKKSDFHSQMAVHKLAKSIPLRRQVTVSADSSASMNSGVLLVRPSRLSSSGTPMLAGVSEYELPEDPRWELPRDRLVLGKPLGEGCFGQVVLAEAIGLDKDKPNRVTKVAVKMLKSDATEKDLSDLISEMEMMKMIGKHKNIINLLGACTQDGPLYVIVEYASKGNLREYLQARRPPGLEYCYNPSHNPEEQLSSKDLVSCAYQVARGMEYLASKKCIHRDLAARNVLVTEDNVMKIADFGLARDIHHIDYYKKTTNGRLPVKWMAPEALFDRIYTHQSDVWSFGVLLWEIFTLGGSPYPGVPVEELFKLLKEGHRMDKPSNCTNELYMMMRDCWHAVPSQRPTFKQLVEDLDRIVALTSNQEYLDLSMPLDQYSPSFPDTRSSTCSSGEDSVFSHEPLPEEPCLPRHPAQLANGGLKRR
# ROCK1 = ROCK1 (Homo sapiens, UniProt Q13464); assay: Nanosyn kinase profiling, mobility shift assay; conditions: read-out: % inhibition by neratinib
# ROCK1, sequence (Q13464 whole entry): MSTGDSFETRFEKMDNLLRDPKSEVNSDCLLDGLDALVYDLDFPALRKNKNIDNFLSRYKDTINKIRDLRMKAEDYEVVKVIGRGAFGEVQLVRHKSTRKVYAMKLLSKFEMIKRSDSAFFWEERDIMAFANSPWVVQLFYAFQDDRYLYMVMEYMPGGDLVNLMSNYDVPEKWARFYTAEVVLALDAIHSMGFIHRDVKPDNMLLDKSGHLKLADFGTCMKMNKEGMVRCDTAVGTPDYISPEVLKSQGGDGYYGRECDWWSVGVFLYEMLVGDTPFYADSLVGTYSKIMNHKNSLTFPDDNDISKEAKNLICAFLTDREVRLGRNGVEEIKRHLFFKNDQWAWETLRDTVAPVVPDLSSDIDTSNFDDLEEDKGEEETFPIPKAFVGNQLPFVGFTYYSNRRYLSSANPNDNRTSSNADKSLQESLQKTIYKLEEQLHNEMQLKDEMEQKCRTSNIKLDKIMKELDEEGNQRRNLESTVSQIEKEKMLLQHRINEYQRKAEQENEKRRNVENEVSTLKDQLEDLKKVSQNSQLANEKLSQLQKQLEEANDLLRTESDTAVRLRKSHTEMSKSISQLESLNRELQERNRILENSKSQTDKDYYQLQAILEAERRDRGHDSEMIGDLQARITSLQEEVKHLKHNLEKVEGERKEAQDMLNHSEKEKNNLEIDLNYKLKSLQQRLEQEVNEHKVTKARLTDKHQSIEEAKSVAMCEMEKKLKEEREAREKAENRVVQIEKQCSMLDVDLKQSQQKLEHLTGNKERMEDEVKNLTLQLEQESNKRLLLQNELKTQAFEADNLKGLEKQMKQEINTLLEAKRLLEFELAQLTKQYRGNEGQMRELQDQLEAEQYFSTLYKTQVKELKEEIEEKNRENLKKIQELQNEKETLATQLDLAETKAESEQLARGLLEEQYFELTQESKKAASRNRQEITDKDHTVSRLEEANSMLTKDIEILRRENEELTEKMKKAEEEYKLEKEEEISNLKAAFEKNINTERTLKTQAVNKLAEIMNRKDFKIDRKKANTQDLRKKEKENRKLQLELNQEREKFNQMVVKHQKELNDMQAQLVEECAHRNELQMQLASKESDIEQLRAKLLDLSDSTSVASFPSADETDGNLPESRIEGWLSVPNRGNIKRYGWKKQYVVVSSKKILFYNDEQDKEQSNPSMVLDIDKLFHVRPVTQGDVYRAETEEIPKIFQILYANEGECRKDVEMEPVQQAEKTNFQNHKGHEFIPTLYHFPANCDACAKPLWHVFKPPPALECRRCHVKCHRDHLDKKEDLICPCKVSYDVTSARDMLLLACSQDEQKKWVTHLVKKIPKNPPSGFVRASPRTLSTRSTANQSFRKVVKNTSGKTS
# IRAK4 = IRAK4 (Homo sapiens, UniProt Q9NWZ3); assay: Nanosyn kinase profiling, mobility shift assay; conditions: read-out: % inhibition by neratinib
# IRAK4, sequence (Q9NWZ3 whole entry): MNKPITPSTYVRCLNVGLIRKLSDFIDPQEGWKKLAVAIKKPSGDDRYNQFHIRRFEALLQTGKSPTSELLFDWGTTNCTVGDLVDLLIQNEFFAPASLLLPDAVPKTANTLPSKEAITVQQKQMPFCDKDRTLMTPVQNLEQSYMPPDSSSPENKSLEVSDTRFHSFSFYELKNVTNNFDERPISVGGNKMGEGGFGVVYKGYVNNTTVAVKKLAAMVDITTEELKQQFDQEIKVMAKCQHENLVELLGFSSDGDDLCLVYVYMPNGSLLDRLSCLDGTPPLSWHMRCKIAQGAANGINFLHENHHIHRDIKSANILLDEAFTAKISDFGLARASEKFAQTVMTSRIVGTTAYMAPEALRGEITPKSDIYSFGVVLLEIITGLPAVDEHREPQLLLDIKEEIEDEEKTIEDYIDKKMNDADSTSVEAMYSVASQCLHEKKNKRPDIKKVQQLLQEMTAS
# INS-1E cells [4] = assay: Cytotoxicity CellTiter-Glo assay; conditions: all tested concentrations, 24 h
# Description: Assay plates were shaken vigorously for 1 min at RT to achieve completed cell lysis. Luminescence intensity was detected on Envision plate reader (Perkin Elmer, MA).
# ITK = ITK (Homo sapiens, UniProt Q08881); assay: Nanosyn kinase profiling, mobility shift assay; conditions: read-out: % inhibition by neratinib
structure (smiles),measurement,setting,value
CCOc1cc2ncc(C#N)c(Nc3ccc(OCc4ccccn4)c(Cl)c3)c2cc1NC(=O)/C=C/CN(C)C [neratinib],inhibition at 10 µM,PKC-ALPHA,7%
same,nuclear PDX1,"[1]; db/db, day 31",enhanced
same,PDX1 %/mouse,[1]; Mean,57.3127%
same,PDX1 %/mouse,[1]; individual mice,48.8372% and 71.3415% and 51.7595%
same,caspase-3 activation induced by thapsigargin,INS-1E cells [2],dose-dependently abolished
same,ipITT normalized to 100,[3]; 0 min after ins,100
same,ipITT normalized to 100,[3]; 15 min after ins,132.381
same,ipITT normalized to 100,[3]; 30 min after ins,111.751
same,ipITT normalized to 100,[3]; 60 min after ins,88.1279
same,ipITT normalized to 100,[3]; 90 min after ins,87.8414
same,basal glucose lower in neratinib-treated mice after a short fast of 4 h,[3]; db/db,20%
same,response to insulin challenge (ipITT),[3]; db/db,modestly reduced ability to lower their glucose levels
same,AUC ipITT,"[3]; insert 8d, normalized to 100, individual mice",11197.2 and 9260.59 and 10559.8 and 6670.17 and 8196.06 and 9385.6
same,MEAN AUC ipITT,"[3]; insert 8d, normalized to 100, mean",9211.58
same,ipITT,"[3]; time 0, MEAN",336.667
same,ipITT,"[3]; time 0, individual mice",327 and 354 and 301 and 357 and 292 and 389
same,ipITT,"[3]; time 15, MEAN",444.667
same,ipITT,"[3]; time 15, individual mice",477 and 480 and 417 and 432 and 371 and 491
same,ipITT,"[3]; time 30, MEAN",371.5
same,ipITT,"[3]; time 30, individual mice",455 and 383 and 437 and 224 and 323 and 407
same,ipITT,"[3]; time 60, MEAN",297.167
same,ipITT,"[3]; time 60, individual mice",397 and 342 and 303 and 176 and 182 and 383
same,ipITT,"[3]; time 90, MEAN",295.833
same,ipITT,"[3]; time 90, individual mice",324 and 270 and 290 and 289 and 230 and 372
same,inhibition at 10 µM,P38-ALPHA,15%
same,inhibition at 10 µM,CHEK1,27%
same,inhibition at 10 µM,CAMK4,19%
same,inhibition at 10 µM,PRKD2,71%
same,inhibition at 10 µM,GSK-3-BETA,23%
same,inhibition at 10 µM,FGFR1,26%
same,inhibition at 10 µM,ROCK1,-48%
same,inhibition at 10 µM,IRAK4,17%
same,basal cell viability (steady-state ATP),INS-1E cells [4],no evidence of interference on basal cell viability
same,inhibition at 10 µM,ITK,88%
